System: DMS-114 complex spheroids with HUVEC/MSC, growth % test/control
Test: Anticancer human tumor DMS-114 cell line growth inhibition [AhR];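 further: spheroids exposed to agents for 7 days before readout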;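 on viability, T/C: 100% = DMSO vehicle control wells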
Conditions: for IC50: curve of first compound; for viability, T/C: stronger effect = lower value; active means viability on the fitted dose curve at most 10% of control; inactive means the rest
Method in brief: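 Spheroids combined tumor cells with HUVEC endothelial cells and human MSCs as stroma. AhR antagonists were paired with standard or investigational drugs, each dosed in half-log steps down from near clinical Cmax, or from 10 microM where Cmax was unknown.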

[1] = second compound 0.1 µM, first compound 0.000949 µM
[2] = second compound 0.1 µM, first compound 0.003 µM
[3] = second compound 0.1 µM, first compound 0.00949 µM
[4] = second compound 0.1 µM, first compound 0.03 µM
[5] = second compound 0.1 µM, first compound 0.0949 µM
[6] = second compound 0.1 µM, first compound 0.3 µM
[7] = second compound 0.316 µM, first compound 0.000949 µM
[8] = second compound 0.316 µM, first compound 0.003 µM
[9] = second compound 0.316 µM, first compound 0.00949 µM
[10] = second compound 0.316 µM, first compound 0.03 µM
[11] = second compound 0.316 µM, first compound 0.0949 µM
[12] = second compound 0.316 µM, first compound 0.3 µM
[13] = second compound 1 µM, first compound 0.000949 µM
[14] = second compound 1 µM, first compound 0.003 µM
[15] = second compound 1 µM, first compound 0.00949 µM
[16] = second compound 1 µM, first compound 0.03 µM
[17] = second compound 1 µM, first compound 0.0949 µM
[18] = second compound 1 µM, first compound 0.3 µM
[19] = second compound 3.16 µM, first compound 0.000949 µM
[20] = second compound 3.16 µM, first compound 0.003 µM
[21] = second compound 3.16 µM, first compound 0.00949 µM
[22] = second compound 3.16 µM, first compound 0.03 µM
[23] = second compound 3.16 µM, first compound 0.0949 µM
[24] = second compound 3.16 µM, first compound 0.3 µM
[25] = second compound 10 µM, first compound 0.000949 µM
[26] = second compound 10 µM, first compound 0.003 µM
[27] = second compound 10 µM, first compound 0.00949 µM
[28] = second compound 10 µM, first compound 0.03 µM
[29] = second compound 10 µM, first compound 0.0949 µM
[30] = second compound 10 µM, first compound 0.3 µM

CC(C)CC(NC(=O)C(Cc1ccccc1)NC(=O)c1cnccn1)B(O)O (stereo not given) + Cc1ccccc1N=Nc1ccc(NC(=O)c2ccnn2C)c(C)c1
6.01 nM: IC50 (second compound 0.316 µM)
5.59 nM: IC50 (second compound 10 µM)
5.5 nM: IC50 (second compound 0.1 µM)
6.14 nM: IC50 (second compound 3.16 µM)
active: viability, T/C [4] 0.2% | viability, T/C [5] 0.1% | viability, T/C [6] 0.22% | viability, T/C [10] 0.18% | viability, T/C [11] 0.05% | viability, T/C [12] 0.48% | viability, T/C [16] 0.41% | viability, T/C [17] 0.28% | viability, T/C [18] 0.18% | viability, T/C [22] 0.28% | viability, T/C [23] 1.08% | viability, T/C [24] 0.24% | viability, T/C [28] 0.65% | viability, T/C [29] 0.6% | viability, T/C [30] 0.32%
5.87 nM: IC50 (second compound 1 µM)
inactive: viability, T/C [1] 90.3% | viability, T/C [2] 93.9% | viability, T/C [3] 12.1% | viability, T/C [7] 101% | viability, T/C [8] 99.9% | viability, T/C [9] 17.2% | viability, T/C [13] 94.7% | viability, T/C [14] 94.6% | viability, T/C [15] 18.1% | viability, T/C [19] 89.9% | viability, T/C [20] 97.8% | viability, T/C [21] 23.4% | viability, T/C [25] 94.3% | viability, T/C [26] 88.7% | viability, T/C [27] 17.1%

CCc1c2c(nc3ccc(O)cc13)-c1cc3c(c(=O)n1C2)COC(=O)[C@]3(O)CC + Cc1ccccc1N=Nc1ccc(NC(=O)c2ccnn2C)c(C)c1
8.31 nM: IC50 (second compound 0.316 µM)
9.91 nM: IC50 (second compound 1 µM)
13.4 nM: IC50 (second compound 10 µM)
9.05 nM: IC50 (second compound 0.1 µM)
inactive: viability, T/C [1] 98.3% | viability, T/C [2] 97.7% | viability, T/C [3] 48% | viability, T/C [4] 35.2% | viability, T/C [5] 38.4% | viability, T/C [6] 37.7% | viability, T/C [7] 103% | viability, T/C [8] 80.9% | viability, T/C [9] 47% | viability, T/C [10] 30.5% | viability, T/C [11] 32.5% | viability, T/C [12] 32.3% | viability, T/C [13] 94% | viability, T/C [14] 90.9% | viability, T/C [15] 50.5% | viability, T/C [16] 36.4% | viability, T/C [17] 36.3% | viability, T/C [18] 40.6% | viability, T/C [19] 93.2% | viability, T/C [20] 79.1% | viability, T/C [21] 52.5% | viability, T/C [22] 35.6% | viability, T/C [23] 39.8% | viability, T/C [24] 41.4% | viability, T/C [25] 83.1% | viability, T/C [26] 82.2% | viability, T/C [27] 53.7% | viability, T/C [28] 40.4% | viability, T/C [29] 40.5% | viability, T/C [30] 43.5%
10.5 nM: IC50 (second compound 3.16 µM)

Nc1ccccc1NC(=O)c1ccc(CNC(=O)OCc2cccnc2)cc1 + Cc1ccccc1N=Nc1ccc(NC(=O)c2ccnn2C)c(C)c1
2340 nM: IC50 (second compound 1 µM)
2220 nM: IC50 (second compound 0.1 µM)
2460 nM: IC50 (second compound 3.16 µM)
2410 nM: IC50 (second compound 0.316 µM) | IC50 (second compound 10 µM)
inactive: viability, T/C (second compound 0.1 µM, first compound 0.0316 µM) 91.5% | viability, T/C (second compound 0.1 µM, first compound 0.1 µM) 102% | viability, T/C (second compound 0.1 µM, first compound 0.316 µM) 91.5% | viability, T/C (second compound 0.1 µM, first compound 1 µM) 72.9% | viability, T/C (second compound 0.1 µM, first compound 3.16 µM) 40.1% | viability, T/C (second compound 0.1 µM, first compound 10 µM) 23.3% | viability, T/C (second compound 0.316 µM, first compound 0.0316 µM) 95.7% | viability, T/C (second compound 0.316 µM, first compound 0.1 µM) 102% | viability, T/C (second compound 0.316 µM, first compound 0.316 µM) 94.8% | viability, T/C (second compound 0.316 µM, first compound 1 µM) 72.5% | viability, T/C (second compound 0.316 µM, first compound 3.16 µM) 43.7% | viability, T/C (second compound 0.316 µM, first compound 10 µM) 23.1% | viability, T/C (second compound 1 µM, first compound 0.0316 µM) 91.8% | viability, T/C (second compound 1 µM, first compound 0.1 µM) 95.9% | viability, T/C (second compound 1 µM, first compound 0.316 µM) 90% | viability, T/C (second compound 1 µM, first compound 1 µM) 73.4% | viability, T/C (second compound 1 µM, first compound 3.16 µM) 41.8% | viability, T/C (second compound 1 µM, first compound 10 µM) 25.1% | viability, T/C (second compound 3.16 µM, first compound 0.0316 µM) 98.6% | viability, T/C (second compound 3.16 µM, first compound 0.1 µM) 88.7% | viability, T/C (second compound 3.16 µM, first compound 0.316 µM) 84.5% | viability, T/C (second compound 3.16 µM, first compound 1 µM) 68.8% | viability, T/C (second compound 3.16 µM, first compound 3.16 µM) 43.9% | viability, T/C (second compound 3.16 µM, first compound 10 µM) 23.5% | viability, T/C (second compound 10 µM, first compound 0.0316 µM) 91.6% | viability, T/C (second compound 10 µM, first compound 0.1 µM) 87.3% | viability, T/C (second compound 10 µM, first compound 0.316 µM) 85.5% | viability, T/C (second compound 10 µM, first compound 1 µM) 72.8% | viability, T/C (second compound 10 µM, first compound 3.16 µM) 42.9% | viability, T/C (second compound 10 µM, first compound 10 µM) 26.1%

Reference: PubChem BioAssay AID1919008 (Molecular Pharmacology Branch, DTP, NCI, 2023)
